System: KRAS patient-derived spheroids with HUVEC/MSC, viability
Experiment: Anticancer human tumor 941728-121-R-J1-PDC patient-derived lung adenocarcinoma cell line growth inhibition [KRAS2]
Conditions: for IC50: curve of first compound; for viability, T/C: stronger effect = lower value
Summary of the method: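 Combination screen of spheroid viability in tumor-cell co-cultures with endothelial (HUVEC) and mesenchymal stem cell stroma. Each agent was tested in half-log dilutions, topping at clinical Cmax or at 10 microM without a known Cmax.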

[1] = second compound 0.0316 µM, first compound 0.0316 µM
[2] = second compound 0.0316 µM, first compound 0.1 µM
[3] = second compound 0.0316 µM, first compound 0.316 µM
[4] = second compound 0.0316 µM, first compound 1 µM
[5] = second compound 0.0316 µM, first compound 3.16 µM
[6] = second compound 0.0316 µM, first compound 10 µM
[7] = second compound 0.1 µM, first compound 0.0316 µM
[8] = second compound 0.1 µM, first compound 0.1 µM
[9] = second compound 0.1 µM, first compound 0.316 µM
[10] = second compound 0.1 µM, first compound 1 µM
[11] = second compound 0.1 µM, first compound 3.16 µM
[12] = second compound 0.1 µM, first compound 10 µM
[13] = second compound 0.316 µM, first compound 0.0316 µM
[14] = second compound 0.316 µM, first compound 0.1 µM
[15] = second compound 0.316 µM, first compound 0.316 µM
[16] = second compound 0.316 µM, first compound 1 µM
[17] = second compound 0.316 µM, first compound 3.16 µM
[18] = second compound 0.316 µM, first compound 10 µM
[19] = second compound 1 µM, first compound 0.0316 µM
[20] = second compound 1 µM, first compound 0.1 µM
[21] = second compound 1 µM, first compound 0.316 µM
[22] = second compound 1 µM, first compound 1 µM
[23] = second compound 1 µM, first compound 3.16 µM
[24] = second compound 1 µM, first compound 10 µM
[25] = second compound 3.16 µM, first compound 0.0316 µM
[26] = second compound 3.16 µM, first compound 0.1 µM
[27] = second compound 3.16 µM, first compound 0.316 µM
[28] = second compound 3.16 µM, first compound 1 µM
[29] = second compound 3.16 µM, first compound 3.16 µM
[30] = second compound 3.16 µM, first compound 10 µM
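Further: spheroids exposed to agents for seven days before readout.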

SMILES	IC50 (second compound 0.0316 µM) [nM]	IC50 (second compound 0.1 µM) [nM]	IC50 (second compound 0.316 µM) [nM]	IC50 (second compound 1 µM) [nM]	IC50 (second compound 3.16 µM) [nM]	viability, T/C [1] [%]	viability, T/C [2] [%]	viability, T/C [3] [%]	viability, T/C [4] [%]	viability, T/C [5] [%]	viability, T/C [6] [%]	viability, T/C [7] [%]	viability, T/C [8] [%]	viability, T/C [9] [%]	viability, T/C [10] [%]	viability, T/C [11] [%]	viability, T/C [12] [%]	viability, T/C [13] [%]	viability, T/C [14] [%]	viability, T/C [15] [%]	further results
COC(=O)c1ccc2c(C(=Nc3ccc(N(C)C(=O)CN4CCN(C)CC4)cc3)c3ccccc3)c(O)[nH]c2c1 + C=CC(=O)N1CCN(c2nc(OCC3CCCN3C)nc3c2CCN(c2cccc4cccc(C)c24)C3)CC1CC#N	< 31.6	< 31.6	< 31.6	< 31.6	< 31.6	30.6	26.9	23.9	22.5	8.16	6.26	31.4	27	23.2	18.1	4.92	5.67	29.8	26.9	23.7	viability, T/C [16]: 18.1%; viability, T/C [17]: 4.34%; viability, T/C [18]: 3.09%; viability, T/C [19]: 24.2%; viability, T/C [20]: 23.9%; viability, T/C [21]: 23.4%; viability, T/C [22]: 13%; viability, T/C [23]: 0.56%; viability, T/C [24]: 0.29%; viability, T/C [25]: 0.27%; viability, T/C [26]: 0.31%; viability, T/C [27]: 0.12%; viability, T/C [28]: 0.11%; viability, T/C [29]: 0.07%; viability, T/C [30]: 0.11%
COc1cc(Nc2ncc3c(n2)-c2ccc(Cl)cc2C(c2c(F)cccc2OC)=NC3)ccc1C(=O)O + C=CC(=O)N1CCN(c2nc(OCC3CCCN3C)nc3c2CCN(c2cccc4cccc(C)c24)C3)CC1CC#N	< 31.6	< 31.6	< 31.6	< 31.6	< 31.6	32.1	29.5	26.1	26.3	22.9	20.3	33.6	30.4	25.6	25.9	22.8	20.9	30.4	26.1	26.8	viability, T/C [16]: 26.1%; viability, T/C [17]: 22%; viability, T/C [18]: 20.3%; viability, T/C [19]: 26.5%; viability, T/C [20]: 26.3%; viability, T/C [21]: 27.1%; viability, T/C [22]: 22.9%; viability, T/C [23]: 23%; viability, T/C [24]: 16.5%; viability, T/C [25]: 0.53%; viability, T/C [26]: 0.41%; viability, T/C [27]: 0.87%; viability, T/C [28]: 0.19%; viability, T/C [29]: 0.26%; viability, T/C [30]: 0.18%
O=C(c1cc(Cc2n[nH]c(=O)c3ccccc23)ccc1F)N1CCN(C(=O)C2CC2)CC1 + C=CC(=O)N1CCN(c2nc(OCC3CCCN3C)nc3c2CCN(c2cccc4cccc(C)c24)C3)CC1CC#N	< 31.6	< 31.6	< 31.6	< 31.6	< 31.6	36.5	36.5	59.6	29.1	26.9	36.2	32.3	33.3	30.5	32.5	30.6	35.4	36.1	33.7	33.3	viability, T/C [16]: 33.7%; viability, T/C [17]: 33.9%; viability, T/C [18]: 34.2%; viability, T/C [19]: 32.6%; viability, T/C [20]: 36.2%; viability, T/C [21]: 35.2%; viability, T/C [22]: 32.8%; viability, T/C [23]: 32%; viability, T/C [24]: 35.7%; viability, T/C [25]: 0.38%; viability, T/C [26]: 4.45%; viability, T/C [27]: 1.13%; viability, T/C [28]: 0.34%; viability, T/C [29]: 0.38%; viability, T/C [30]: 0.53%
